Data: patent publication US7071231B2, “Naphthalene ureas as glucose uptake enhancers” (Telik, Inc., priority 1999, dated 2006)
Where a name gives a salt, the structure may show the parent alone.

Experiments:
[1] = target: T1, β-kinase domain of the human insulin receptor (CKD) (Homo sapiens, UniProt P06213); experiment: 32P-cytoplasmic kinase domain (CKD) autophosphorylation assay; assay type: biochemical; conditions: phosphorylation of CKD expressed as % of the vehicle level; 10 minutes at room temperature; compound concentration not given
T1 construct: The complete β-kinase domain of the human insulin receptor (CKD) was expressed in, and purified from, baculovirus; made in house
T1 sequence (P06213 980-1382 limits assumed): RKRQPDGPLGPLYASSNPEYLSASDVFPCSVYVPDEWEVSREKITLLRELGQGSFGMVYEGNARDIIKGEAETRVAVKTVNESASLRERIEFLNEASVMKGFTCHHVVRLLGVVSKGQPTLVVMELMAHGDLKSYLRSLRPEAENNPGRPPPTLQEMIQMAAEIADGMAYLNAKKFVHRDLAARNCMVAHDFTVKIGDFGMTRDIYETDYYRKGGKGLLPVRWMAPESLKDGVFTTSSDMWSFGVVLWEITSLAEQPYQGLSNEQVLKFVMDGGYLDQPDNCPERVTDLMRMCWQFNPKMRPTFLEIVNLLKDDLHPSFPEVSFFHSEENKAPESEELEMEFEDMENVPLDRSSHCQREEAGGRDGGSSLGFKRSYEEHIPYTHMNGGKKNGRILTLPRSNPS
Protocol: ^32P-cytoplasmic Kinase Domain (CKD) Autophosphorylation Assay The insulin signaling pathway is activated through stimulation of the insulin receptor. A major component of this activation is the phosphorylation of a specific portion of the receptor called the β-kinase domain. The complete β-kinase domain of the human insulin receptor (CKD) was expressed in, and purified from, baculovirus. CKD (4.0μg/ml), in a solution of 29 mM HEPES (pH 7.6), 0.05% Triton X-100, 10 mM MgCl2, 2 mM MnCl2 (50 μl final volume), was combined with 50 μM ATP, and 5 μCi ^32P-ATP (3000Ci/mmol.). A test compound, or the vehicle (dimethyl sulfoxide (DMSO)) was added to a final DMSO concentration of 1%. The mixture was incubated for 10 minutes at room temperature. The reaction was terminated by the addition of 10 μl 200 mM EDTA. A 30 μl volume was removed, mixed with 5 μl of 6× Laemmeli sodium dodecyl sulfate (SDS) treatment buffer, and heated to 94° C. for 5 minutes. A 20 μl aliquot was then run an SDS-PAGE gel. The radioactivity incorporated into the CKD band was quantified by phosphorimaging of the gel, or scintillation counting of the excised bands. The potency of a compound for increasing phosphorylation was expressed as % of the vehicle level.

[2] = tested on: 3T3 L1 fibroblasts; experiment: Glucose transport activity assay (14C-2-deoxy-D-glucose uptake); assay type: cell-based
How it was run: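 Differentiated 3T3 L1 adipocytes (IBMX/dexamethasone/insulin induction), serum-starved overnight, preincubated 30 min at 37 °C with compound ± insulin in pH 7.4 salt buffer, then 30 min with 5 μCi/ml 14C-2-deoxy-D-glucose. Lysate radioactivity counted; EC = concentration raising uptake above 150% of vehicle control.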

[3] = tested on: Escherichia coli strain WP2uvrA; experiment: Ames test, Escherichia coli strain; conditions: 50 to 5000 μg/plate, without and with induced rat liver S-9 plus cofactors
[4] = tested on: Salmonella typhimurium strains, TA100, TA1535, and TA1537; experiment: Ames test, Salmonella typhimurium strains; conditions: 50 to 5000 μg/plate, without and with induced rat liver S-9 plus cofactors
[5] = target: T2, human insulin receptor (Homo sapiens, UniProt P06213); experiment: Whole-cell phosphorylation assay (3T3HIR cells); assay type: cell-based; conditions: 15 min, anti-phosphotyrosine Western, various concentrations (FIG. 2)
T2 construct: expressed in transfected cells; host or cells: NIH 3T3 (3T3HIR)
T2 sequence (P06213 763-1382 limits assumed): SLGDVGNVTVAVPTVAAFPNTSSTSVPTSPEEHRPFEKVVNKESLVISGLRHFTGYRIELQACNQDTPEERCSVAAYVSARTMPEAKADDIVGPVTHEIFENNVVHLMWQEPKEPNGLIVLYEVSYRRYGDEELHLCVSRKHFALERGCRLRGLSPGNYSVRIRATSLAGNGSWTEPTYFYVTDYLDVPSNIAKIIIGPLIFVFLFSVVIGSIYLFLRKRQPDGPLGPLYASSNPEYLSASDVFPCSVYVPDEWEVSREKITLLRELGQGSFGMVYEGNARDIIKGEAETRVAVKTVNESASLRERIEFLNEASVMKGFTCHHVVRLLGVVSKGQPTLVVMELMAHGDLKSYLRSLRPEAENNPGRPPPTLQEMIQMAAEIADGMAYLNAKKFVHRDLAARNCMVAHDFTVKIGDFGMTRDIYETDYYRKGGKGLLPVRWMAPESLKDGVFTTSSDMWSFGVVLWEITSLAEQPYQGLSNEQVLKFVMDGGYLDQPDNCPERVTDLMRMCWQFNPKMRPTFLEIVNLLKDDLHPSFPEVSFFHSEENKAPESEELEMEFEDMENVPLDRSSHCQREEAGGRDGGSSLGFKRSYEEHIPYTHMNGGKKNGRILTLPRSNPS
T2 sequence (P06213 28-758 partner limits assumed): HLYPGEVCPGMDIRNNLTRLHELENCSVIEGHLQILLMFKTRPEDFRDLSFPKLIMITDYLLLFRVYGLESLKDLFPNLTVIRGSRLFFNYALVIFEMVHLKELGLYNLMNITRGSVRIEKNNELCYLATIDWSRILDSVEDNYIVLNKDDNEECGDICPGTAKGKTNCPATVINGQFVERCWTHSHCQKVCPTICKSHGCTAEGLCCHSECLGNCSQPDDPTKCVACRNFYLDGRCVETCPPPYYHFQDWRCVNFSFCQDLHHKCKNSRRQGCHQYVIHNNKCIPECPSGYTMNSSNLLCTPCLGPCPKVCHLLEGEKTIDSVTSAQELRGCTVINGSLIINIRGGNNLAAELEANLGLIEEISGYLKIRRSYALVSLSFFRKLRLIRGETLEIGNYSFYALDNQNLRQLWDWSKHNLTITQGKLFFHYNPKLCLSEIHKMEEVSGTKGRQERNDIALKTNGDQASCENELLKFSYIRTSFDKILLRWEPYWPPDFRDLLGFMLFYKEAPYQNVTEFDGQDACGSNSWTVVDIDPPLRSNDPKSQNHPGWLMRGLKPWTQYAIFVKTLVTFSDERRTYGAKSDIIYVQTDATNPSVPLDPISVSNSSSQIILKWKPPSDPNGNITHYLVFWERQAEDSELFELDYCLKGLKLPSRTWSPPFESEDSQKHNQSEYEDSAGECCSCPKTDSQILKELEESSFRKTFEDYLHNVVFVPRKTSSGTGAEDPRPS
Protocol: Whole-cell Phosphorylation Assay:
The initial step in insulin signaling is phosphorylation of the insulin receptor in response to insulin binding. NIH 3T3 cells overexpressing human insulin receptor (3T3HIR) were grown for 2 days at a density of 2×10^5/ml cells in 6 well culture dishes in DMEM with 10% FBS and L-glutamine. Prior to the experiment the cells were serum-starved overnight with DMEM with 0.1% BSA. The following morning, the cells were washed with PBS and the medium was replaced with 150 mM NaCl, 1.7 mM KCl, 0.9 mM CaCl2, K2HPO4 (pH 7.4), to which were added either the experimental compounds, or their vehicle (DMSO). Insulin or its vehicle (0.01% BSA) was diluted in the assay buffer (containing test compound or vehicle, respectively) to a final concentration of 2.5 nM. After incubating for 15 min, the cells were washed with cold PBS twice and lysed in 50 mM Tris.HCl, pH 7.4 150 mM NaCl, 0.25% sodium deoxycholate, 1% NP-40, 1 mM EGTA, 1 mM PMSF, 1 mM Na3VO4, 1 mM NaF, 1 ug/ml each of Aprotinin, Leupeptin and Pepstatin. The cell lysates were clarified by centrifugation at 12000 rpm, and the supernatants were estimated for protein concentration. Total cell lysate ([…]) was boiled with 2× SDS-PAGE sample buffer for 3 min and loaded into 7.5% SDS-PAGE along with Amersham rainbow marker protein as a molecular weight standard. […]

[6] = tested on: STZ/HFD rat; experiment: Blood glucose determination in the STZ/HFD rat model of Type 2 diabetes; assay type: in vivo; conditions: STZ/HFD rat model, oral compound administration (30 mg/kg)
Text: Blood Glucose Determination in the STZ/HFD Rat Model of Type 2 Diabetes
Representative compounds were also profiled in genetically normal rats given a high-fat diet followed by treatment with a low dose of streptozotocin (STZ/HFD). This treatment regimen recreates both the insulin resistance and the hyperglycemia seen in human Type 2 diabetes. Male CD rats (Jackson Labs, Bar Harbor Me.) were maintained according to NIH guidelines, housed two per cage, and fed either standard lab chow (Tekland Laboratory Diets, James Grain, San Jose, Calif.) or the same chow supplemented with chocolate bars, cookies, and potato chips such that their final diet contained 30% fat by weight (high-fat diet; HFD). After two weeks of this diet, the animals were given an injection of freshly-prepared streptozotocin (35 mg/kg, i.p.) and continued on the HFD. Animals that achieved glucose levels of 190 to 380 mg/dl were used in this study. At the end of the 12-hour light/dark cycle, and just prior to the experiment, the animals were moved to new cages with no food available until 4 hours after treatment. The compound or vehicle (PBS) was given p.o. by gavage, and blood was sampled by approved IACUC protocol using tail cap method. Glucose was determined using the Glucometer Elite (Bayer, Elkhart, Ind.).
The reduction was maximal (20%) 4 hours after the administration of Compound 15.

[7] = tested on: 3T3 L1 adipocytes; experiment: Effect of Wortmannin and Cytochalasin on glucose uptake; assay type: cell-based; conditions: Cytochalasin B 10 μM; stimulation by Compound 15 alone or Compound 15 plus 5.6 nM insulin
Protocol: Effect of Wortmannin and Cytochalasin on Glucose Uptake:
The glucose transport pathway stimulated by insulin involves activation of PI3 Kinase. Wortmannin is a selective inhibitor of PI3 Kinase and inhibits insulin-stimulated glucose transport. 3T3 L1 adipocytes were pretreated with 100 nM Wortmannin and stimulated with the compounds in the presence or absence of insulin. […] Insulin-stimulated glucose transport is mediated by glucose transporter proteins. Cytochalasin B is an inhibitor of glucose transporters and inhibits insulin-stimulated glucose uptake.

SMILES: O=C(Nc1ccc2c(O)cc(S(=O)(=O)O)cc2c1)Nc1ccc2c(O)cc(S(=O)(=O)O)cc2c1 [Compound 4, 4-hydroxy-7-{[(5-hydroxy-7-sulfo(2-naphthyl))amino]carbonylamino}naphthalene-2-sulfonic acid disodium salt]
- % Activity vs. Control [1]: 152%
- EC (150% of vehicle control) ([2]; Mus musculus, 3T3-L1, read-out: Concentration (μM) to reach >150% activity of vehicle control): 32 µM
- mutagenicity (revertant colonies), tryptophan operon [3]: negative
- mutagenicity (revertant colonies), histidine operon [4]: negative

SMILES: O=C(Nc1ccc2ccc(S(=O)(=O)Nc3cccc(S(=O)(=O)O)c3)cc2c1)Nc1ccc2ccc(S(=O)(=O)Nc3cccc(S(=O)(=O)O)c3)cc2c1 [Compound 13, 3-{[(7-{[N-(7-{[(3-sulfophenyl)amino]sulfonyl}-2-naphthyl)carbamoyl]amino}-2-naphthyl)sulfonyl]amino}benzenesulfonic acid disodium salt]
- % Activity vs. Control [1]: 135%
- autophosphorylation of the insulin receptor in whole cells [5]: increase of autophosphorylation
- glucose uptake of cells ([2]; in the presence or absence of insulin (FIG. 3)): increase in glucose uptake of cells
- % Reduction in Blood Glucose (maximal reduction) [6]: 20%
- Time (h) at which maximal reduction in blood glucose occurred [6]: 1 h

SMILES: C=C1[C@@H](C)[C@H]2[C@H](Cc3ccccc3)NC(=O)[C@]23OC(=O)/C=C/[C@H](O)CCC[C@@H](C)C/C=C/[C@H]3[C@@H]1O [Cytochalasin B]
- effect on stimulation of glucose transport [7]: inhibited the stimulation of glucose transport
